Source: paper PMC6424957 (Scientific Reports, 2019)

Tests used:
[1] = Oxygen radical absorbance capacity assay (ORAC-FL); details: ORAC-FL, AAPH, fluorescein, 37 °C, pH 7.4; Trolox taken as 1
Experimental: The ability of the conjugates to reduce the amount of peroxyl radicals as another characteristic of the antioxidant activity of the compounds was determined using the oxygen radical absorbance capacity by fluorescence (ORAC-FL) method using fluorescein (FL) as a fluorescent probe. The method is based on measuring the decrease in the intensity of fluorescence with time, which characterizes the degree of decay of the fluorescent probe under the influence of peroxyl radicals. In the presence of antioxidants, the degree of decay of the fluorescent probe decreases and, accordingly, the fluorescence time increases.
The ability of compounds to scavenge peroxyl radicals was characterized by the value of the Trolox equivalent (TE, μmol of Trolox per μmol of the tested compound), which is equal to the ratio of the Trolox concentration to the tested compound concentration having the same fluorescence intensity. Peroxyl radical scavenging capacity of Trolox is taken as one (1)[67],[68].
2,2′-Azobis-(amidinopropane) dihydrochloride (AAPH), (±)-6-hydroxy-2,5,7,8-tetramethylchromane-2-carboxylic acid (Trolox) and fluorescein (FL) were purchased from Sigma-Aldrich. The reaction was carried out at 37 °C in 75 mM K,Na phosphate buffer (pH 7.4), and the final reaction mixture was 200 µL. The tested compounds and Trolox standard were dissolved in DMSO to 10 mM and further diluted in 75 mM K,Na phosphate buffer (pH 7.4). […] The blank was composed of 20 µL 75 mM K,Na phosphate buffer (pH 7.4) containing 2% (v/v) DMSO, 120 µL FL and 60 µL AAPH, and was added in each assay. Antioxidant (the test compound or Trolox, 20 µL) and FL (120 µL, final concentration: 70 nM) solutions were placed in a black 96-well microplate and were pre-incubated for 15 min at 37 °C. AAPH solution (60 µL, final concentration 12 mM) was then added rapidly using a multichannel pipette. The fluorescence was recorded every minute for 100 min. A Trolox standard curve was also obtained in each assay. All reactions were carried out in triplicate and at least three different assays were performed for each sample.
Antioxidant curves (fluorescence vs. time) were first normalized to the curve of the blank (without antioxidant) corresponding to the same assay, and the area under the fluorescence decay curve (AUC) was calculated. The net AUC corresponding to a sample was calculated by subtracting the AUC corresponding to the blank. Regression equations were calculated by plotting the net AUC against the antioxidant concentration. The ORAC value was obtained by dividing the slope of the latter curve by the slope of the Trolox curve obtained in the same assay. […] Data were expressed as means ± SEM.

[2] = ABTS radical cation scavenging assay; details: 1 h incubation; for ABTS·+ scavenging activity, TEAC value: Trolox equivalent antioxidant capacity, ratio of slopes compound/Trolox
Experimental: This assay is based on the production of a stable dark green ABTS cation-radical (ABTS^·+) by incubating ABTS ([2,2′-azino-bis(3-eth-ylbenzothiazoline-6-sulfonic acid diammonium salt)) with potassium persulfate. […] The ABTS radical-scavenging activity of the compounds was measured according to an established method[66] with some modifications, at 30 °С in the dark; incubation time was 1 hour. […] The results were expressed as TEAC values (Trolox equivalent antioxidant capacity) calculated by dividing the slope of ABTS^·+ concentration decrease versus the antioxidant concentration by the slope of the Trolox plot.
Radical scavenging activity of the compounds was assessed using an ABTS radical decolorization assay[66] with some minor modifications. ABTS (2,2′-azino-bis-(3-ethylbenzothiazoline-6-sulfonic acid) diammonium salt) was purchased from TCI (Tokyo, Japan); potassium persulfate (di-potassium peroxodisulfate) and Trolox (6-hydroxy-2,5,7,8-tetramethychroman-2-carboxylic acid were obtained from Sigma-Aldrich Chemical Co. (St. Louis, MO, USA). Ethanol was HPLC grade. Aqueous solutions were prepared using deionized water.
Trolox was used as the antioxidant standard. A 5 mM solution of Trolox was prepared in DMSO for use as stock. Fresh working solutions of known concentrations (1–100 μM) were prepared on the day of experiments and used for calibration and as positive controls for ABTS radical cation (ABTS^•+) scavenging activity. ABTS was dissolved in deionized water to a 7 mM concentration. […] Fresh working ABTS^•+ solution was prepared for each assay.
The radical scavenging capacity of the compounds was analyzed by mixing 10 μl of compound with 240 μl of ABTS^•+ working solution. […] Ethanol blanks were run in each assay. Values were obtained from three replicates of each sample and three independent experiments.
Antioxidant capacity as a Trolox equivalent (TEAC values) was determined as the ratio between the slopes obtained from the linear correlation for concentrations of test compounds and Trolox with absorbance of ABTS radical.

[3] = test system: isolated rat liver mitochondria; experiment: Inhibition of iron-induced lipid peroxidation (TBARs); details: read-out: IC50 of Fe3+-induced LP, LP induced by 0.5 mM Fe3+, mean ± SEM, n ≥ 3
[4] = target: T1, porcine liver carboxylesterase (CaE) (Sus scrofa, UniProt Q29550); experiment: CaE inhibition (4-nitrophenyl acetate hydrolysis); format: biochemical; details: 20 µM, mean ± SEM, n ≥ 3, n.a. = not active at 20 µM
T1 sequence (Q29550 19-566): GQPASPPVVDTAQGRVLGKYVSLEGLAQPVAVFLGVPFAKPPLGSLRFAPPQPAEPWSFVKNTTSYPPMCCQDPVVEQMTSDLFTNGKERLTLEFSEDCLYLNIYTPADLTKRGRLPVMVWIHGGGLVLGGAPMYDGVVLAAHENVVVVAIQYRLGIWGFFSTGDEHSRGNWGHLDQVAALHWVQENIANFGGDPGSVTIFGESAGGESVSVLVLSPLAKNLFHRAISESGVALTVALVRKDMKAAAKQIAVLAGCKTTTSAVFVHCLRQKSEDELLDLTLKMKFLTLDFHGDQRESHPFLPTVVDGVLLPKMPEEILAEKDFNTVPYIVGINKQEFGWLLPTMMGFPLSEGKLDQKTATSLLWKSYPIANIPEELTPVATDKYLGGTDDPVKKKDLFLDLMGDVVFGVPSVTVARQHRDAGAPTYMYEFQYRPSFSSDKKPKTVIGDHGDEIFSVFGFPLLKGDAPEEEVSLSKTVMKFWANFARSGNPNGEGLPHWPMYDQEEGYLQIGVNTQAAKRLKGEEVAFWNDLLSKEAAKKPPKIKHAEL
Experimental: (§1) Acetylcholinesterase (AChE, EC 3.1.1.7, from human erythrocyte and E. electricus (EeAChE) (type VI-S), butyrylcholinesterase (BChE, EC 3.1.1.8, from equine serum), carboxylesterase (CaE, EC 3.1.1.1, from porcine liver), acetylthiocholine iodide (ATCh), butylthiocholine iodide (BTCh), 5,5′-dithiobis-(2-nitrobenzoic acid) (DTNB), 4-nitrophenyl acetate (4-NPA), were purchased from Sigma-Aldrich (Germany).
(§2) AChE and BChE activities were measured by the Ellman method as described earlier. The assay solution consisted of 0.1 M K/Na phosphate buffer pH 7.5, 25 °C with the addition of 0.33 mM DTNB, 0.02 unit/mL of AChE or BChE, and 1 mM of substrate (ATCh or BTCh, respectively). The assays were carried out with a reagent blank containing all components except AChE or BChE to account for non-enzymatic hydrolysis of substrate. In addition, an enzyme blank was included that contained all components except substrate to account for non-substrate sulfhydryl groups. […] The assay solution consisted of 0.1 M K/Na phosphate buffer pH 8.0, 25 °C with the addition of 1 mM 4-nitrophenyl acetate and 0.02 unit/mL of CaE. Assays were carried out with a blank containing all components except CaE.
(§3) The test compounds were dissolved in DMSO; the incubation mixture contained 2% (v/v) of the solvent. […] The test compounds were added to the assay solution and preincubated at 25°C with the enzymes for 5 min followed by the addition of substrate. A parallel control was made for the assay solution with no inhibitor. […] Each experiment was performed three times. The results were expressed as the mean ± SEM. The reaction rates in the presence and absence of inhibitor were compared, and the percent of residual enzyme activity due to the presence of test compounds was calculated.

[5] = target: T2, equine serum butyrylcholinesterase (BChE) (Equus caballus, UniProt P81908); experiment: biochemical; format: biochemical; details: mean ± SEM, n ≥ 3
T2 construct: butyrylcholinesterase (BChE, EC 3.1.1.8, from equine serum); purchased Sigma-Aldrich (Germany); host or cells: equine serum
T2 sequence (P81908 whole entry): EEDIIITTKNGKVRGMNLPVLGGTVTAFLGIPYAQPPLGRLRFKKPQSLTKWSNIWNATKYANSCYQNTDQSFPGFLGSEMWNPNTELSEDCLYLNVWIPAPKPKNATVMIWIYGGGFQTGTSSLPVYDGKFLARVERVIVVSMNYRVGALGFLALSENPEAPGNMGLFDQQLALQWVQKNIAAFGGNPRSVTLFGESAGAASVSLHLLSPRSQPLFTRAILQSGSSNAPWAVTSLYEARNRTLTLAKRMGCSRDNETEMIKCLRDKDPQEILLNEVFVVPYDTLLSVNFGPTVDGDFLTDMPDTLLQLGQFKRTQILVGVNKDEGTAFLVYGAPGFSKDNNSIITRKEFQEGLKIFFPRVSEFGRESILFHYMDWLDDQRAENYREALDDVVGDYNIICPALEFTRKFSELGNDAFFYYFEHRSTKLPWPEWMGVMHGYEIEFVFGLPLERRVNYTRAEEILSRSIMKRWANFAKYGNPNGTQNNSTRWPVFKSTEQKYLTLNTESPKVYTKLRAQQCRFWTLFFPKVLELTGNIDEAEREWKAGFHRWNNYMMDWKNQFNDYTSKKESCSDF
Experimental: as §1, §2, §3

[6] = target: T3, Electrophorus electricus AChE (EeAChE) (Electrophorus electricus, UniProt O42275); experiment: biochemical; format: biochemical
T3 construct: from human erythrocyte and E. electricus (EeAChE) (type VI-S); purchased Sigma-Aldrich (Germany) type VI-S; host or cells: Electrophorus electricus tissue
T3 sequence (O42275 24-633): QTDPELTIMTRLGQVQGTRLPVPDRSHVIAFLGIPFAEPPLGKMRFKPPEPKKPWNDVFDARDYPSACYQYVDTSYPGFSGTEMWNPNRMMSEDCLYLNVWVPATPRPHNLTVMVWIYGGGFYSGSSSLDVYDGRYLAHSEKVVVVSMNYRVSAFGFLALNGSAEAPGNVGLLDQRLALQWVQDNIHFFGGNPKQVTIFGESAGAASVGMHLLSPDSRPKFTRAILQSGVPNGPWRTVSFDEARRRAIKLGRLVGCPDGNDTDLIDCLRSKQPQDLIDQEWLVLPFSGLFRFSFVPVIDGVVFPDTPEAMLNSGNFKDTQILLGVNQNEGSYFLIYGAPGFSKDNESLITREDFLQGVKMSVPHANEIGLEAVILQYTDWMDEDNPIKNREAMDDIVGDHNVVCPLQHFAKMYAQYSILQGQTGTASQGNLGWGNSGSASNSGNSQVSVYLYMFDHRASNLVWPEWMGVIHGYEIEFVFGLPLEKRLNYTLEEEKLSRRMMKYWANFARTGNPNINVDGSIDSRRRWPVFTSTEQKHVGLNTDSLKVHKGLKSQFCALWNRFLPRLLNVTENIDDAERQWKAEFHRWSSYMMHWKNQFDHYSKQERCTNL
Experimental: as §1, §2, §3

[7] = target: T4, human erythrocyte acetylcholinesterase (AChE) (Homo sapiens, UniProt P22303); experiment: biochemical; format: biochemical; details: mean ± SEM, n ≥ 3
T4 construct: Acetylcholinesterase (AChE, EC 3.1.1.7, from human erythrocyte); purchased Sigma-Aldrich (Germany); host or cells: human erythrocytes
T4 sequence (P22303 32-617 isoform P22303-2 limits assumed): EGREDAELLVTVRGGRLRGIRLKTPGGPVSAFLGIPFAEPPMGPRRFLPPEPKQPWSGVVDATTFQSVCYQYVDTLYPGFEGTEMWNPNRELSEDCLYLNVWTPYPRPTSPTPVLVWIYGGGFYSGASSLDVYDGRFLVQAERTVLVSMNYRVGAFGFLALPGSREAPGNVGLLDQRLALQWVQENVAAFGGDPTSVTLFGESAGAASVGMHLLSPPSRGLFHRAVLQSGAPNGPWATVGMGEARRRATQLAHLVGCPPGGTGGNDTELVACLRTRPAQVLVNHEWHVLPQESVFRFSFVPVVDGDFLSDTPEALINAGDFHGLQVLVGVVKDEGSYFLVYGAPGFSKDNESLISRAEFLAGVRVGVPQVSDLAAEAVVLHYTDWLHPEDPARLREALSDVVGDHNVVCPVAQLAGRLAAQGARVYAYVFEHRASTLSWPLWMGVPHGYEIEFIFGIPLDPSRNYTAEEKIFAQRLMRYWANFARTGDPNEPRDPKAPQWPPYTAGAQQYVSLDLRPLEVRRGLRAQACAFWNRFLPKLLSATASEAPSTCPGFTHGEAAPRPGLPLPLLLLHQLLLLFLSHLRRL
Experimental: as §1, §2, §3

[8] = target: T5, peripheral anionic site (PAS) of EeAChE (Electrophorus electricus, UniProt O42275); format: binding; details: EeAChE 7 μM, propidium iodide 8 μM
T5 construct: from human erythrocyte and E. electricus (EeAChE) (type VI-S); purchased Sigma-Aldrich (Germany) type VI-S; host or cells: Electrophorus electricus tissue
T5 sequence (O42275 24-633): as the sequence (O42275 24-633) above
Source text: The fluorescent assay used to evaluate competitive propidium iodide displacement from the PAS of AChE is commonly used as primary screening method of AChE pro-aggregation activity inhibitors. Propidium iodide is a selective ligand for the PAS of AChE responsible for Aβ binding.
EeAChE was used owing to its high degree of purification, high activity, and lower cost than human AChE. […] The fluorescence intensity of propidium iodide bound with AChE increases several times.
To determine the degree of displacement (% displacement) of propidium iodide from the PAS of AChE, EeAChE (final concentration 7 μM) was incubated with the test compound at a concentration of 3 and 20 μM in 1 mM Tris-HCl buffer pH 8.0, 25 °C for 15 min. Then, propidium iodide solution (final concentration 8 μM) was added, the samples were incubated for 15 min and the fluorescence spectrum (530 nm (excitation) and 600 nm (emission)) was taken. Donepezil and tacrine were used as reference compounds. The blank contained propidium iodide of the same concentration in 1 mM Tris-HCl buffer pH 8.0. The measurements were carried out in triplicate on a microplate reader FLUOStar Optima (BMG Labtech Germany).
The degree of displacement (% displacement) of propidium iodide from the peripheral anionic site of AChE was calculated by the following formula: %Displacement=100−(IFAChE+Propidium+inhibitor/IFAChE+Propidium)[…], where IFAChE + Propidium is the fluorescence intensity of the propidium associated with AChE in the absence of the test compound (taken as 100%), and IFAChE + Propidium + inhibitor is the fluorescence intensity of the propidium associated with AChE in the presence of the test compound.

| Compound | ORAC TE value [1] [µmol Trolox/ µmol comp.] | ABTS·+ scavenging activity, TEAC value [2] | IC50 [3] [µM] | % inhibition of CaE at 20 µM [4] | IC50 [5] [µM] | IC50 [6] [µM] | IC50 [7] [µM] | % Displacement of propidium iodide, 3 µM ([8]; compound 3 µM) [%] | % Displacement of propidium iodide, 20 µM ([8]; compound 20 µM) [%] | IC50 ([2]; concentration reducing ABTS·+ by 50%) [µM] |
| --- | --- | --- | --- | --- | --- | --- | --- | --- | --- | --- |
| Cc1ccc2c(c1)c1c(n2CCc2ccc(C)nc2)CCN(C)C1 [Dimebon, reference compound] | 1.07 ± 0.08 | 0.004 | > 30 | n.а. | 5.76 ± 0.51 | 32.4 ± 3.5 | 36.3 ± 3.59 | 2.8 ± 0.2 | 6.0 ± 0.5 | – |
| Cc1c(C)c2c(c(C)c1O)CCC(C)(C(=O)O)O2 (stereo not drawn) [Trolox, 6-hydroxy-2,5,7,8-tetramethychroman-2-carboxylic acid, reference compound] | 1.0 | 1.0 | – | – | – | – | – | – | – | 20.4 ± 1.7 |
